Laboratory results as given in patent US10914728B2, “Bioassay for insulin formulations” (priority 2016, dated 2021).

Tests used:
Format in all cases: cell-based
H4IIE cells [1] = test: Sensitivity assessment: ERK phosphorylation, H4IIE cells, Western blotting; details: insulin for 30 minutes, read-out: Approximate EC50 values, ERK phosphorylation
Protocol: (§1) For signalling, cells were treated with vehicle or increasing doses of insulin for 30 minutes. Cells were lysed in appropriate buffers and phosphorylation of the insulin receptor, Erk, Akt or Foxo was determined by Western blotting or ELISA, as specified. For mitogenicity, H4IIE cells were incubated with vehicle or increased doses of insulin and cellular growth was measured by detection of thymidine incorporation. […] Uptake and conversion of glucose into lipids were measured after 2 hours by extracting lipids into Microscint-e and measuring radioactivity using a top counter.
(§2) For all methods: to determine EC50 values, data were fitted to a nonlinear 4 parameter regression curve using Graphpad Prism software.

primary rat adipocytes = test: Rat free fat cell lipogenesis; details: Isolated primary rat adipocytes; H3 labelled glucose; 2 hours; read-out: Approximate EC50 values, Rat Free Fat Cell lipogenesis
Protocol: as §1, §2

H4IIE cells [2] = test: Mitogenicity (thymidine incorporation), H4IIE cells; details: radioactively labelled thymidine, read-out: Approximate EC50 values, Mitogenecity (thymidine incorporation)
Protocol: as §1, §2

Q: What does the source list for human insulin?
A: EC50 (H4IIE cells [1]): ~2.3 nM; EC50 (primary rat adipocytes): ~0.02 nM; EC50 (H4IIE cells [2]): ~1 nM
